The supplement of paper PMC10307832

What was measured:
Assay in all cases: relative viability (nuclei count vs DMSO), 5 days (fraction); higher = more cells survive
Irinotecan + Palbociclib = compound: CCc1c2c(nc3ccc(OC(=O)N4CCC(N5CCCCC5)CC4)cc13)-c1cc3c(c(=O)n1C2)COC(=O)[C@]3(O)CC [Irinotecan] + CC(=O)c1c(C)c2cnc(Nc3ccc(N4CCNCC4)cn3)nc2n(C2CCCC2)c1=O [Palbociclib] (partner 0.5 µM)
Procedure, shortened: (§1)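 Lung cancer cell lines were seeded in 1536-well plates and dosed by pin tool the next day, with either a single drug or a fixed anchor-drug dose combined with five library-drug doses (not always all listed) spaced in √10 steps. Five days later, one step fixed the cells and stained their nuclei (final 0.05% Triton X-100, 1% formaldehyde, 1 ug/ml Hoechst), and nuclei were counted on 4× images. Relative viability is the nuclei count in treated wells divided by the count in vehicle wells, and each value is the median of duplicate plates.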

Irinotecan + Linsitinib = compound: CCc1c2c(nc3ccc(OC(=O)N4CCC(N5CCCCC5)CC4)cc13)-c1cc3c(c(=O)n1C2)COC(=O)[C@]3(O)CC [Irinotecan] + C[C@]1(O)C[C@@H](c2nc(-c3ccc4ccc(-c5ccccc5)nc4c3)c3c(N)nccn32)C1 [Linsitinib] (partner 1 µM)
Procedure, shortened: as §1

Irinotecan + Vorinostat = compound: CCc1c2c(nc3ccc(OC(=O)N4CCC(N5CCCCC5)CC4)cc13)-c1cc3c(c(=O)n1C2)COC(=O)[C@]3(O)CC [Irinotecan] + O=C(CCCCCCC(=O)Nc1ccccc1)NO [Vorinostat] (partner 1 µM)
Procedure, shortened: as §1

MK-8033 + Linsitinib = compound: Cn1cc(-c2cnc3ccc4ccc(CS(=O)(=O)NCc5ccccn5)cc4c(=O)c3c2)cn1 [MK-8033] + C[C@]1(O)C[C@@H](c2nc(-c3ccc4ccc(-c5ccccc5)nc4c3)c3c(N)nccn32)C1 [Linsitinib] (partner 1 µM)
Procedure, shortened: as §1

Work on NCI-H1395 yielded a relative viability (Irinotecan + Palbociclib; first compound 2 µM) of 0.572, a relative viability (Irinotecan + Palbociclib; first compound 6.325 µM) of 0.476 and a relative viability (Irinotecan + Palbociclib; first compound 20 µM) of 0.284. It also gave a relative viability (Irinotecan + Linsitinib; first compound 2 µM) of 0.804, a relative viability (Irinotecan + Linsitinib; first compound 6.325 µM) of 0.484 and a relative viability (Irinotecan + Linsitinib; first compound 20 µM) of 0.29. For the same cell line, the relative viability (Irinotecan + Vorinostat; first compound 2 µM) was 0.714, the relative viability (Irinotecan + Vorinostat; first compound 6.325 µM) was 0.522 and the relative viability (Irinotecan + Vorinostat; first compound 20 µM) was 0.268. The relative viability (MK-8033 + Linsitinib; first compound 0.02 µM) was 1.09, the relative viability (MK-8033 + Linsitinib; first compound 0.06325 µM) was 1.05 and the relative viability (MK-8033 + Linsitinib; first compound 0.2 µM) was 1.08. The relative viability (MK-8033 + Linsitinib; first compound 0.6325 µM) was 1.03 and the relative viability (MK-8033 + Linsitinib; first compound 2 µM) was 0.892.

HCC-44 showed a relative viability (Irinotecan + Palbociclib; first compound 0.6325 µM) of 0.841, a relative viability (Irinotecan + Palbociclib; first compound 2 µM) of 0.631 and a relative viability (Irinotecan + Palbociclib; first compound 6.325 µM) of 0.484. For the same cell line, the relative viability (Irinotecan + Palbociclib; first compound 20 µM) was 0.532, the relative viability (Irinotecan + Linsitinib; first compound 0.6325 µM) was 0.677 and the relative viability (Irinotecan + Linsitinib; first compound 2 µM) was 0.305. For the same cell line, the relative viability (Irinotecan + Linsitinib; first compound 6.325 µM) was 0.168, the relative viability (Irinotecan + Linsitinib; first compound 20 µM) was 0.249 and the relative viability (Irinotecan + Vorinostat; first compound 0.6325 µM) was 0.998. The relative viability (Irinotecan + Vorinostat; first compound 2 µM) was 0.839, the relative viability (Irinotecan + Vorinostat; first compound 6.325 µM) was 0.451 and the relative viability (Irinotecan + Vorinostat; first compound 20 µM) was 0.461. The relative viability (MK-8033 + Linsitinib; first compound 0.02 µM) was 0.615, the relative viability (MK-8033 + Linsitinib; first compound 0.06325 µM) was 0.661 and the relative viability (MK-8033 + Linsitinib; first compound 0.2 µM) was 0.617. For the same cell line, the relative viability (MK-8033 + Linsitinib; first compound 0.6325 µM) was 0.654 and the relative viability (MK-8033 + Linsitinib; first compound 2 µM) was 0.688.

Work on NCI-H441 yielded a relative viability (Irinotecan + Palbociclib; first compound 0.6325 µM) of 0.207, a relative viability (Irinotecan + Palbociclib; first compound 2 µM) of 0.211 and a relative viability (Irinotecan + Palbociclib; first compound 6.325 µM) of 0.218. For the same cell line, the relative viability (Irinotecan + Palbociclib; first compound 20 µM) was 0.175, the relative viability (Irinotecan + Linsitinib; first compound 0.6325 µM) was 0.547 and the relative viability (Irinotecan + Linsitinib; first compound 2 µM) was 0.339. It also gave a relative viability (Irinotecan + Linsitinib; first compound 6.325 µM) of 0.241, a relative viability (Irinotecan + Linsitinib; first compound 20 µM) of 0.341 and a relative viability (Irinotecan + Vorinostat; first compound 0.6325 µM) of 0.443. The relative viability (Irinotecan + Vorinostat; first compound 2 µM) was 0.305, the relative viability (Irinotecan + Vorinostat; first compound 6.325 µM) was 0.233 and the relative viability (Irinotecan + Vorinostat; first compound 20 µM) was 0.197. For the same cell line, the relative viability (MK-8033 + Linsitinib; first compound 0.02 µM) was 0.505, the relative viability (MK-8033 + Linsitinib; first compound 0.06325 µM) was 0.401 and the relative viability (MK-8033 + Linsitinib; first compound 0.2 µM) was 0.54. It also gave a relative viability (MK-8033 + Linsitinib; first compound 0.6325 µM) of 0.551 and a relative viability (MK-8033 + Linsitinib; first compound 2 µM) of 0.53.

With Calu-6 the relative viability (Irinotecan + Linsitinib; first compound 0.6325 µM) was 0.714, the relative viability (Irinotecan + Linsitinib; first compound 2 µM) was 0.523 and the relative viability (Irinotecan + Linsitinib; first compound 6.325 µM) was 0.2. For the same cell line, the relative viability (Irinotecan + Linsitinib; first compound 20 µM) was 0.132, the relative viability (MK-8033 + Linsitinib; first compound 0.02 µM) was 0.895 and the relative viability (MK-8033 + Linsitinib; first compound 0.06325 µM) was 0.96. For the same cell line, the relative viability (MK-8033 + Linsitinib; first compound 0.2 µM) was 0.874, the relative viability (MK-8033 + Linsitinib; first compound 0.6325 µM) was 1.01 and the relative viability (MK-8033 + Linsitinib; first compound 2 µM) was 0.876.

CAL-12T gave a relative viability (Irinotecan + Palbociclib; first compound 0.6325 µM) of 0.316, a relative viability (Irinotecan + Palbociclib; first compound 2 µM) of 0.344 and a relative viability (Irinotecan + Palbociclib; first compound 6.325 µM) of 0.251. For the same cell line, the relative viability (Irinotecan + Palbociclib; first compound 20 µM) was 0.197, the relative viability (Irinotecan + Linsitinib; first compound 0.6325 µM) was 0.589 and the relative viability (Irinotecan + Linsitinib; first compound 2 µM) was 0.77. For the same cell line, the relative viability (Irinotecan + Linsitinib; first compound 6.325 µM) was 0.366, the relative viability (Irinotecan + Linsitinib; first compound 20 µM) was 0.264 and the relative viability (Irinotecan + Vorinostat; first compound 0.6325 µM) was 0.733. The relative viability (Irinotecan + Vorinostat; first compound 2 µM) was 0.592, the relative viability (Irinotecan + Vorinostat; first compound 6.325 µM) was 0.403 and the relative viability (Irinotecan + Vorinostat; first compound 20 µM) was 0.259. For the same cell line, the relative viability (MK-8033 + Linsitinib; first compound 0.02 µM) was 0.738, the relative viability (MK-8033 + Linsitinib; first compound 0.06325 µM) was 0.861 and the relative viability (MK-8033 + Linsitinib; first compound 0.2 µM) was 0.72. For the same cell line, the relative viability (MK-8033 + Linsitinib; first compound 0.6325 µM) was 0.903 and the relative viability (MK-8033 + Linsitinib; first compound 2 µM) was 0.771.

Work on HCC-78 yielded a relative viability (Irinotecan + Palbociclib; first compound 0.6325 µM) of 0.474, a relative viability (Irinotecan + Palbociclib; first compound 2 µM) of 0.363 and a relative viability (Irinotecan + Palbociclib; first compound 6.325 µM) of 0.37. It also gave a relative viability (Irinotecan + Palbociclib; first compound 20 µM) of 0.347, a relative viability (Irinotecan + Linsitinib; first compound 0.6325 µM) of 0.577 and a relative viability (Irinotecan + Linsitinib; first compound 2 µM) of 0.418. For the same cell line, the relative viability (Irinotecan + Linsitinib; first compound 6.325 µM) was 0.204, the relative viability (Irinotecan + Linsitinib; first compound 20 µM) was 0.184 and the relative viability (Irinotecan + Vorinostat; first compound 0.6325 µM) was 0.56. The relative viability (Irinotecan + Vorinostat; first compound 2 µM) was 0.322, the relative viability (Irinotecan + Vorinostat; first compound 6.325 µM) was 0.291 and the relative viability (Irinotecan + Vorinostat; first compound 20 µM) was 0.288. The relative viability (MK-8033 + Linsitinib; first compound 0.02 µM) was 0.474, the relative viability (MK-8033 + Linsitinib; first compound 0.06325 µM) was 0.501 and the relative viability (MK-8033 + Linsitinib; first compound 0.2 µM) was 0.474. The relative viability (MK-8033 + Linsitinib; first compound 2 µM) was 0.581.

Cell Line NCI-H2170 has a relative viability (Irinotecan + Palbociclib; first compound 0.6325 µM) of 0.356, a relative viability (Irinotecan + Palbociclib; first compound 2 µM) of 0.248 and a relative viability (Irinotecan + Palbociclib; first compound 6.325 µM) of 0.159. It also gave a relative viability (Irinotecan + Palbociclib; first compound 20 µM) of 0.143, a relative viability (Irinotecan + Vorinostat; first compound 0.6325 µM) of 0.864 and a relative viability (Irinotecan + Vorinostat; first compound 2 µM) of 0.753. It also gave a relative viability (Irinotecan + Vorinostat; first compound 6.325 µM) of 0.327 and a relative viability (Irinotecan + Vorinostat; first compound 20 µM) of 0.102.

Work on NCI-H23 yielded a relative viability (Irinotecan + Palbociclib; first compound 0.6325 µM) of 0.446, a relative viability (Irinotecan + Palbociclib; first compound 2 µM) of 0.332 and a relative viability (Irinotecan + Palbociclib; first compound 6.325 µM) of 0.249. The relative viability (Irinotecan + Palbociclib; first compound 20 µM) was 0.254, the relative viability (Irinotecan + Linsitinib; first compound 0.6325 µM) was 0.607 and the relative viability (Irinotecan + Linsitinib; first compound 2 µM) was 0.339. The relative viability (Irinotecan + Linsitinib; first compound 6.325 µM) was 0.248, the relative viability (Irinotecan + Linsitinib; first compound 20 µM) was 0.281 and the relative viability (Irinotecan + Vorinostat; first compound 0.6325 µM) was 0.467. For the same cell line, the relative viability (Irinotecan + Vorinostat; first compound 2 µM) was 0.451, the relative viability (Irinotecan + Vorinostat; first compound 6.325 µM) was 0.234 and the relative viability (Irinotecan + Vorinostat; first compound 20 µM) was 0.199. The relative viability (MK-8033 + Linsitinib; first compound 0.02 µM) was 0.508, the relative viability (MK-8033 + Linsitinib; first compound 0.06325 µM) was 0.576 and the relative viability (MK-8033 + Linsitinib; first compound 0.2 µM) was 0.407. It also gave a relative viability (MK-8033 + Linsitinib; first compound 0.6325 µM) of 0.599 and a relative viability (MK-8033 + Linsitinib; first compound 2 µM) of 0.508.

With COR-L 105 the relative viability (Irinotecan + Palbociclib; first compound 0.6325 µM) was 0.407, the relative viability (Irinotecan + Palbociclib; first compound 2 µM) was 0.395 and the relative viability (Irinotecan + Palbociclib; first compound 6.325 µM) was 0.454. For the same cell line, the relative viability (Irinotecan + Palbociclib; first compound 20 µM) was 0.3, the relative viability (Irinotecan + Linsitinib; first compound 0.6325 µM) was 0.883 and the relative viability (Irinotecan + Linsitinib; first compound 2 µM) was 0.898. The relative viability (Irinotecan + Linsitinib; first compound 6.325 µM) was 0.637, the relative viability (Irinotecan + Linsitinib; first compound 20 µM) was 0.314 and the relative viability (Irinotecan + Vorinostat; first compound 0.6325 µM) was 0.856. The relative viability (Irinotecan + Vorinostat; first compound 2 µM) was 0.643, the relative viability (Irinotecan + Vorinostat; first compound 6.325 µM) was 0.621 and the relative viability (Irinotecan + Vorinostat; first compound 20 µM) was 0.334. The relative viability (MK-8033 + Linsitinib; first compound 0.02 µM) was 0.868, the relative viability (MK-8033 + Linsitinib; first compound 0.06325 µM) was 1.04 and the relative viability (MK-8033 + Linsitinib; first compound 0.2 µM) was 0.838. The relative viability (MK-8033 + Linsitinib; first compound 0.6325 µM) was 0.902 and the relative viability (MK-8033 + Linsitinib; first compound 2 µM) was 0.915.
